Earlier results on one compound are cited in patent publication US20100086592A1, “MODIFIED DOSAGE FORMS OF TACROLIMUS” (PANACEA BIOTEC LIMITED., priority 2007, published 2010).

Read-outs that look alike come from different tables or passages of the source.

For this series the following is noted: oral.

In the case of `C=CC[C@@H]1/C=C(\C)C[C@H](C)C[C@H](OC)[C@H]2O[C@@](O)(C(=O)C(=O)N3CCCC[C@H]3C(=O)O[C@H](/C(C)=C/[C@@H]3CC[C@@H](O)[C@H](OC)C3)[C@H](C)[C@@H](O)CC1=O)[C@H](C)C[C@@H]2OC` [tacrolimus, Tacrolimus], the absolute bioavailability (adult heart transplantation patients (N=11)) is given as 23±9%, the absolute bioavailability (adult liver transplant patients (N=17)) was 22±6% and the absolute bioavailability (healthy volunteers (N=16)) is reported as 18±5%.
